In patent US8962842B2, “2-pyridone antimicrobial compositions” (priority 2010, dated 2015):
Like-named read-outs stand apart in the source and are kept apart here.

Assays:
[1] = system: Acinetobacter baumannii (12 strains); assay: MIC range, broader panel of Quotient Bioresearch strains (Table 4); assay type: cell-based; settings: for MIC50: read-out: MIC Range Median, Acinetobacter baumannii (12 strains)
[2] = system: Streptococcus pneumonia (5 strains); assay: MIC range, broader panel of Quotient Bioresearch strains (Table 3); settings: Streptococcus pneumoniae; for MIC50: read-out: MIC Range Median, Streptococcus pneumonia (5 strains)
[3] = system: Burkholderia cepacia (5 strains); assay: MIC range, broader panel of Quotient Bioresearch strains (Table 4); assay type: cell-based; settings: for MIC50: read-out: MIC Range Median, Burkholderia cepacia (5 strains)
[4] = system: Klebsiella pneumonia (4 strains); assay: as above; assay type: cell-based; settings: Klebsiella pneumoniae; for MIC50: read-out: MIC Range Median, Klebsiella pneumonia (4 strains)
[5] = system: Acinetobacter baumannii, quinolone-resistant strains (Quotient Bioresearch catalogue); assay: MIC against pathogens resistant against quinolones (Table 5); assay type: cell-based
[6] = Metabolic stability in liver microsomes +/- S9 fraction (Table 8); assay type: in vitro ADME; settings: 1 μM
Experimental: Metabolic stability of a select number of examples was tested in liver microsomes+/−addition of S9 fraction as described by Kuhnz, W. and Gieschen, H. (1998), Drug Metab. Dispos., 1120-1127. Test concentration was 1 μM and HPLC/MS-MS was used for detection.

[7] = system: Staphylococcus aureus (16 strains); assay: MIC range, broader panel of Quotient Bioresearch strains (Table 3); settings: for MIC50: read-out: MIC Range Median, Staphylococcus aureus (16 strains)
[8] = system: Escherichia coli (6 strains); assay: MIC range, broader panel of Quotient Bioresearch strains (Table 4); assay type: cell-based; settings: for MIC50: read-out: MIC Range Median, Escherichia coli (6 strains)
[9] = system: Streptococcus pyogenes (4 strains); assay: MIC range, broader panel of Quotient Bioresearch strains (Table 3); settings: for MIC50: read-out: MIC Range Median, Streptococcus pyogenes (4 strains)
[10] = system: Bacterial strains injected into thigh muscles; assay type: in vivo, mice
[11] = system: Pseudomonas aeruginosa (12 strains); assay: MIC range, broader panel of Quotient Bioresearch strains (Table 4); assay type: cell-based; settings: for MIC50: read-out: MIC Range Median, Pseudomonas aeruginosa (12 strains)
[12] = system: Enterococcus faecium (3 strains); assay: MIC range, broader panel of Quotient Bioresearch strains (Table 3); settings: for MIC50: read-out: MIC Range Median, Enterococcus faecium (3 strains)
[13] = system: Haemophilus influenza (5 strains); assay: MIC range, broader panel of Quotient Bioresearch strains (Table 4); assay type: cell-based, Haemophilus influenzae; settings: for MIC50: 16 h, Median of the strain panel
[14] = system: Enterococcus faecalis (5 strains); assay: MIC range, broader panel of Quotient Bioresearch strains (Table 3); settings: for MIC50: read-out: MIC Range Median, Enterococcus faecalis (5 strains)
[15] = system: Group C Streptococcus (4 strains); assay: as above; settings: for MIC50: read-out: MIC Range Median, Group C Streptococcus (4 strains)
[16] = physchem; assay type: physicochemical; settings: thermodynamic from solid
Experimental: The solutions were incubated at room temperature for 24 hours before quantification by HPLC detection. Aqueous solubility was evaluated in simulated gastric fluid (SGF), simulated intestinal fluid (SIF) and phosphate buffer saline (PBS) pH 7.4. Aqueous solubility is expressed in Table 11 as mean solubility in μM.

[17] = target: bacterial topoisomerase IV (Escherichia coli, UniProt P0AFI2+P20083); assay: Inhibition of topoisomerases activity in vitro, Topogen protocol TG1007 (Table 7); assay type: biochemical
[18] = target: bacterial gyrase (Escherichia coli, UniProt P0AES4+P0AES6); assay: Inhibition of topoisomerases activity in vitro, Topogen protocol TG1003 (Table 7); assay type: biochemical
[19] = read-out: MIC Range High, Acinetobacter baumannii (12 strains)
[20] = read-out: MIC Range Low, Acinetobacter baumannii (12 strains)
[21] = read-out: MIC Range Low, Streptococcus pneumonia (5 strains)
[22] = read-out: MIC Range High, Burkholderia cepacia (5 strains)
[23] = read-out: MIC Range Low, Burkholderia cepacia (5 strains)
[24] = read-out: MIC Range High, Klebsiella pneumonia (4 strains)
[25] = read-out: MIC Range Low, Klebsiella pneumonia (4 strains)
[26] = read-out: MIC Range High, Staphylococcus aureus (16 strains)
[27] = read-out: MIC Range Low, Staphylococcus aureus (16 strains)
[28] = read-out: MIC Range High, Escherichia coli (6 strains)
[29] = read-out: MIC Range Low, Escherichia coli (6 strains)
[30] = read-out: MIC Range High, Streptococcus pyogenes (4 strains)
[31] = read-out: MIC Range Low, Streptococcus pyogenes (4 strains)
[32] = read-out: MIC Range High, Pseudomonas aeruginosa (12 strains)
[33] = read-out: MIC Range Low, Pseudomonas aeruginosa (12 strains)
[34] = read-out: MIC Range Low, Enterococcus faecium (3 strains)
[35] = High of the strain panel, read-out: MIC Range High, Haemophilus influenza (5 strains)
[36] = Low of the strain panel, read-out: MIC Range Low, Haemophilus influenza (5 strains)
[37] = read-out: MIC Range Low, Enterococcus faecalis (5 strains)
[38] = read-out: MIC Range High, Group C Streptococcus (4 strains)
[39] = read-out: MIC Range Low, Group C Streptococcus (4 strains)
[40] = read-out: MIC Range High, Enterococcus faecalis (5 strains)

Sequence of bacterial topoisomerase IV (P20083 whole entry): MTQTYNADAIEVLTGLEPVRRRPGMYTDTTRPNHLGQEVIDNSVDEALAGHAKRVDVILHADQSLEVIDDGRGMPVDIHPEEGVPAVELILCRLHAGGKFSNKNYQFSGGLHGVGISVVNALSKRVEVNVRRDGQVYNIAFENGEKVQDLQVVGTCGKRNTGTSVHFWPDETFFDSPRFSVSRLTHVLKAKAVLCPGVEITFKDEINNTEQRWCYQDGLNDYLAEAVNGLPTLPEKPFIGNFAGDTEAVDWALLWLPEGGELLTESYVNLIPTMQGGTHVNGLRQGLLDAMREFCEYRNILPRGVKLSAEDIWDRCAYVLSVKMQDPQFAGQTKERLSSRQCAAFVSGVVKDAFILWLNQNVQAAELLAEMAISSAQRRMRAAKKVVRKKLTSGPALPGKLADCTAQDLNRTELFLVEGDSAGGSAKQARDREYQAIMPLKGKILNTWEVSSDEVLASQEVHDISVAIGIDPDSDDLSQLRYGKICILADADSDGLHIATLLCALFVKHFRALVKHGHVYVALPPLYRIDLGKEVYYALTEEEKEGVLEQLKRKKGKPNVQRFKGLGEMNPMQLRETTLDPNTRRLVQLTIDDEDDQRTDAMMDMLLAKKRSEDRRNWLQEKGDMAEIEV
Sequence of bacterial topoisomerase IV (P0AFI2 whole entry): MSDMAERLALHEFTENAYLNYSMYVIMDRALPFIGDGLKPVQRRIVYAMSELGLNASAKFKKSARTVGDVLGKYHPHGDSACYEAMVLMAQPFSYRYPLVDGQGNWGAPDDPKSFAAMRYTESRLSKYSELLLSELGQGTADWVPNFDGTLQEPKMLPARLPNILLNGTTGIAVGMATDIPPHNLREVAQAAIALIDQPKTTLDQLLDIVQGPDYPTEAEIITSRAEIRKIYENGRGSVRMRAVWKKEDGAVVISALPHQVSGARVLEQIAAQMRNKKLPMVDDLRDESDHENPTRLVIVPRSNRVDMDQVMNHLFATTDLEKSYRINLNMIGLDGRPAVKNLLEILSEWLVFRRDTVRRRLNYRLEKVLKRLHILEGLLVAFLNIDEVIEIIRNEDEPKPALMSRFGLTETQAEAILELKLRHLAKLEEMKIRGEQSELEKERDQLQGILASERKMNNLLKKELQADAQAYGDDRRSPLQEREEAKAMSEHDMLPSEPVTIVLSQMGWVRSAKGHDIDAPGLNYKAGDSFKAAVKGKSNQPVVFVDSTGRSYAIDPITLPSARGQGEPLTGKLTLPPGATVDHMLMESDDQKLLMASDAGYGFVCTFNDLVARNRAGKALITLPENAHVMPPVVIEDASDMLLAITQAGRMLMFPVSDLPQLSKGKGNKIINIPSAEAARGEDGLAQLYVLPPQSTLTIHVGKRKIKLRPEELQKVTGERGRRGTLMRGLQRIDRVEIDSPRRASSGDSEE
Sequence of bacterial gyrase (P0AES4 whole entry, one chain of several): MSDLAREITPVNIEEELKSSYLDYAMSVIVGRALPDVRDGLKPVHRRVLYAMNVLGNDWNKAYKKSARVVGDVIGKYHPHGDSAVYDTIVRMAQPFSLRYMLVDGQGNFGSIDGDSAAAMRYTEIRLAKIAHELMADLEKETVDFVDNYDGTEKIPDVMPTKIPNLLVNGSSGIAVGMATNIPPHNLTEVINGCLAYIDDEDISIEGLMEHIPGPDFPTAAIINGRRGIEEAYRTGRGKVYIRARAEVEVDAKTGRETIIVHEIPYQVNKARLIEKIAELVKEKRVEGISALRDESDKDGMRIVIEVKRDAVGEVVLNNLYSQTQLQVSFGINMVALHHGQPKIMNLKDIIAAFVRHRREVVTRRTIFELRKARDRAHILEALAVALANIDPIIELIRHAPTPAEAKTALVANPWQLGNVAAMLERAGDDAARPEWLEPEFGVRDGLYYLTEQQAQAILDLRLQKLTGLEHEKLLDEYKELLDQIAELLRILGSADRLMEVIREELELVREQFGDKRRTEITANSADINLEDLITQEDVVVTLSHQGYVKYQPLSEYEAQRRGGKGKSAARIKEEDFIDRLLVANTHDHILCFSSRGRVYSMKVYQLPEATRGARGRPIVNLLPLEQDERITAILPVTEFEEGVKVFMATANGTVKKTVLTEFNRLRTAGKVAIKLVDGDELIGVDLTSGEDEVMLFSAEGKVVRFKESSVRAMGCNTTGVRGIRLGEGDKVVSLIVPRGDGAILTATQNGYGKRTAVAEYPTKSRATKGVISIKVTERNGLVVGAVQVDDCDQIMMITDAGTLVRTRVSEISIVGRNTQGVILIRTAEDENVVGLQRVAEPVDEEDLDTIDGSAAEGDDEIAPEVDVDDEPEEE

## Cc1c(-c2ccc(O)cc2)ccn2c(=O)c(C(=O)[O-])cc(C3CC3)c12.[K+] [Example 46 K salt, potassium 1-cyclopropyl-8-(4-hydroxy-phenyl)-9-methyl-4-oxo-4H-quinolizine-3-carboxylate]
[1]; [19]
  MIC: 16 µg/mL
[1]; [20]
  MIC: 0.03 µg/mL
[1]
  MIC50: 4 µg/mL
[2]; [21]
  MIC: 0.06 µg/mL
[2]
  MIC50: 0.06 µg/mL
[3]; [22]
  MIC: 0.12 µg/mL
[3]; [23]
  MIC: 0.06 µg/mL
[3]
  MIC50: 0.12 µg/mL
[4]; [24]
  MIC: > 32 µg/mL
[4]; [25]
  MIC: 0.06 µg/mL
[4]
  MIC50: 18 µg/mL
[5]; Acinetobacter baumannii, GN54
  MIC: 2 µg/mL
[6]; Liver microsomes + S9, human
  Mean Parent Remaining: 97%
[6]; Liver microsomes + S9, mouse
  Mean Parent Remaining: 92%
[6]; Liver microsomes, human
  Mean Parent Remaining: 86%
[6]; Liver microsomes, mouse
  Mean Parent Remaining: 81%
[7]; [26]
  MIC: 0.12 µg/mL
[7]; [27]
  MIC: ≤ 0.015 µg/mL
[7]
  MIC50: 0.06 µg/mL
[8]; [28]
  MIC: 32 µg/mL
[8]; [29]
  MIC: ≤ 0.015 µg/mL
[8]
  MIC50: 12 µg/mL
[9]; [30]
  MIC: 0.12 µg/mL
[9]; [31]
  MIC: 0.03 µg/mL
[9]
  MIC50: 0.06 µg/mL
[10]; E. coli ATCC 25922, mouse thigh, 30 mg/kg TDS p.o.
  Log reduction (LgR) from vehicle control (CFU/g): 0.37
[10]; MRSA ATCC 43300, mouse thigh, 30 mg/kg TDS p.o.
  Log reduction (LgR) from vehicle control (CFU/g): 3.76
[11]; [32]
  MIC: > 32 µg/mL
[11]; [33]
  MIC: 0.25 µg/mL
[11]
  MIC50: 4 µg/mL
[12]; [34]
  MIC: 0.12 µg/mL
[12]
  MIC50: 0.5 µg/mL
[13]
  MIC50: ≤ 0.015 µg/mL
[13]; [35]
  MIC: ≤ 0.015 µg/mL
[13]; [36]
  MIC: ≤ 0.015 µg/mL
[14]; [37]
  MIC: ≤ 0.015 µg/mL
[14]
  MIC50: 0.03 µg/mL
[15]; [38]
  MIC: 0.06 µg/mL
[15]; [39]
  MIC: 0.03 µg/mL
[15]
  MIC50: 0.045 µg/mL
[16]; fassgf or other biorelevant
  solubility at 24 h: 153 µM
[16]; pH 7.4, aqueous buffer
  solubility at 24 h: 44 µM
[16]; simulated gastric fluid
  solubility at 24 h: 7 µM

## Cc1c(-c2ccc(N)c(F)c2)ccn2c(=O)c(C(=O)[O-])cc(C3CC3)c12.[K+] [Example 2 K salt, potassium 8-(4-amino-3-fluoro-phenyl)-1-cyclopropyl-9-methyl-4-oxo-4H-quinolizine-3-carboxylate]
[1]; [19]
  MIC: 16 µg/mL
[1]; [20]
  MIC: 0.06 µg/mL
[1]
  MIC50: 6 µg/mL
[2]; [21]
  MIC: 0.06 µg/mL
[2]
  MIC50: 0.12 µg/mL
[3]; [22]
  MIC: 0.25 µg/mL
[3]; [23]
  MIC: 0.06 µg/mL
[3]
  MIC50: 0.12 µg/mL
[4]; [24]
  MIC: 16 µg/mL
[4]; [25]
  MIC: 0.12 µg/mL
[4]
  MIC50: 10 µg/mL
[5]; Acinetobacter baumannii, GN54
  MIC: 2 µg/mL
[17]
  IC50: 4.43 µM
[6]; Liver microsomes + S9, human
  Mean Parent Remaining: 95%
[6]; Liver microsomes + S9, mouse
  Mean Parent Remaining: 58%
[6]; Liver microsomes, human
  Mean Parent Remaining: 90%
[6]; Liver microsomes, mouse
  Mean Parent Remaining: 53%
[7]; [26]
  MIC: 0.25 µg/mL
[7]; [27]
  MIC: ≤ 0.015 µg/mL
[7]
  MIC50: 0.06 µg/mL
[8]; [28]
  MIC: 16 µg/mL
[8]; [29]
  MIC: ≤ 0.015 µg/mL
[8]
  MIC50: 16 µg/mL
[9]; [30]
  MIC: 0.12 µg/mL
[9]; [31]
  MIC: 0.06 µg/mL
[9]
  MIC50: 0.09 µg/mL
[11]; [32]
  MIC: 16 µg/mL
[11]; [33]
  MIC: 0.5 µg/mL
[11]
  MIC50: 4 µg/mL
[12]; [34]
  MIC: 0.12 µg/mL
[12]
  MIC50: 0.5 µg/mL
[18]
  IC50: ≤ 1.42 µM
[13]
  MIC50: ≤ 0.015 µg/mL
[13]; [35]
  MIC: ≤ 0.015 µg/mL
[13]; [36]
  MIC: ≤ 0.015 µg/mL
[14]; [40]
  MIC: 1 µg/mL
[14]; [37]
  MIC: ≤ 0.015 µg/mL
[14]
  MIC50: 0.03 µg/mL
[15]; [38]
  MIC: 0.12 µg/mL
[15]; [39]
  MIC: 0.03 µg/mL
[15]
  MIC50: 0.06 µg/mL
[16]; fassgf or other biorelevant
  solubility at 24 h: 171 µM
[16]; pH 7.4, aqueous buffer
  solubility at 24 h: 28 µM
[16]; simulated gastric fluid
  solubility at 24 h: 21 µM

## C[C@H]1COc2c(N3CCN(C)CC3)c(F)cc3c(=O)c(C(=O)O)cn1c23 [Levofloxacin, reference compound]
[5]; strain GN54, Acinetobacter baumannii levofloxacin-resistant clinical isolate, read-out: MIC
  MIC: ≥ 16 µg/mL

## CN[C@H](CC(C)C)C(=O)N[C@H]1C(=O)N[C@@H](CC(N)=O)C(=O)N[C@H]2C(=O)N[C@H]3C(=O)N[C@H](C(=O)N[C@H](C(=O)O)c4cc(O)cc(O)c4-c4cc3ccc4O)[C@H](O)c3ccc(c(Cl)c3)Oc3cc2cc(c3O[C@@H]2O[C@H](CO)[C@@H](O)[C@H](O)[C@H]2O[C@H]2C[C@](C)(N)[C@H](O)[C@H](C)O2)Oc2ccc(cc2Cl)[C@H]1O [vancomycin]
[10]; MRSA ATCC 43300, mouse thigh, 25 mg/kg i.v. once
  Log reduction (LgR) from vehicle control (CFU/g): 2.71

## Cc1c(-c2ccc(CN)cc2)ccn2c(=O)c(C(=O)[O-])cc(C3CC3)c12.[K+] [Example 31 K salt, potassium 8-(4-(amino-methyl)-phenyl)-1-cyclopropyl-9-methyl-4-oxo-4H-quinolizine-3-carboxylate]
[1]; [19]
  MIC: > 32 µg/mL
[1]; [20]
  MIC: 0.03 µg/mL
[1]
  MIC50: 8 µg/mL
[2]; read-out: MIC Range High, Streptococcus pneumonia (5 strains)
  MIC: 0.25 µg/mL
[2]; [21]
  MIC: 0.06 µg/mL
[2]
  MIC50: 0.12 µg/mL
[3]; [22]
  MIC: 1 µg/mL
[3]; [23]
  MIC: 0.12 µg/mL
[3]
  MIC50: 0.5 µg/mL
[4]; [24]
  MIC: 32 µg/mL
[4]; [25]
  MIC: 0.03 µg/mL
[4]
  MIC50: 9 µg/mL
[7]; [26]
  MIC: 2 µg/mL
[7]; [27]
  MIC: ≤ 0.015 µg/mL
[7]
  MIC50: 0.5 µg/mL
[8]; [28]
  MIC: 32 µg/mL
[8]; [29]
  MIC: ≤ 0.015 µg/mL
[8]
  MIC50: 8 µg/mL
[9]; [30]
  MIC: 0.25 µg/mL
[9]; [31]
  MIC: 0.06 µg/mL
[9]
  MIC50: 0.09 µg/mL
[11]; [32]
  MIC: > 32 µg/mL
[11]
  MIC50: 8 µg/mL
[12]; read-out: MIC Range High, Enterococcus faecium (3 strains)
  MIC: 8 µg/mL
[12]; [34]
  MIC: 0.5 µg/mL
[12]
  MIC50: 4 µg/mL
[13]
  MIC50: ≤ 0.015 µg/mL
[13]; [35]
  MIC: ≤ 0.015 µg/mL
[13]; [36]
  MIC: ≤ 0.015 µg/mL
[14]; [40]
  MIC: 4 µg/mL
[14]; [37]
  MIC: 0.06 µg/mL
[14]
  MIC50: 0.12 µg/mL
[15]; [38]
  MIC: 0.12 µg/mL
[15]; [39]
  MIC: 0.06 µg/mL
[15]
  MIC50: 0.09 µg/mL
